In patent publication US9040749B2, “Borazine derivatives” (UNIVERSITE DE NAMUR, priority 2011, dated 2015):

Assays:
[1] = Solubility in organic solvents; assay type: physicochemical
[2] = Stability at air and room temperature, NMR spectra at t=0 and t=10 months; assay type: physicochemical; details: NMR spectra at t=0 and t=10 months (FIG. 5)

Compound	Solubility ([1]; solvent: Chloroform)	Solubility ([1]; solvent: Dichloromethane)	Solubility ([1]; solvent: Ethyl acetate)	Solubility ([1]; solvent: Toluene)	Stability at air and room temperature [2]	Solubility (miscibility) ([1]; compound is an oil, toluene, ethyl acetate, dichloromethane, benzene and chloroform)
Cc1cc(C)c(B2N(c3ccccc3)B(c3c(C)cc(C)cc3C)N(c3ccccc3)B(c3c(C)cc(C)cc3C)N2c2ccccc2)c(C)c1 [borazine derivative 1, N,N′,N″-triphenyl-B,B,B″-tri(2,4,6-trimethyl)phenyl borazine]	54 Milligram/milliliter	102 Milligram/milliliter	62 Milligram/milliliter	45 Milligram/milliliter	excellent stability	
CCCCCCCCCCCCc1ccc(N2B(c3c(C)cc(C)cc3C)N(c3ccc(CCCCCCCCCCCC)cc3)B(c3c(C)cc(C)cc3C)N(c3ccc(CCCCCCCCCCCC)cc3)B2c2c(C)cc(C)cc2C)cc1 [borazine derivative 2, N,N′,N″-tri(4-dodecyl)phenyl-B,B,B″-tri(2,4,6-trimethyl)phenyl borazine]						miscible
